Measured values from US7205140B2, “Nucleotide sequence for creatinine deiminase and method of use” (CampusGen GmbH, priority 2003, dated 2007).

B1: recombinant creatinine deiminase: creatinine deiminase (EC 3.5.4.21) from Tissierella creatinini, heterologously expressed in E. coli; 406 amino acid polypeptide (protein, listed as Tissierella creatinini)
chain: MMKKFINAKIYKNNEATEILVEDGKIKEIGNNLADCKEVIDLGGKMVTPPYVDPHLHLDYVYTLAELGKTGAGSGTLFEAIEMWPVFKKTLTVESVKKLALKGVMDEVSQGVQHIRTHIDVTDPKFTGLKAMLEMKEELKDIVDIQIVSFPQQGMYTYKGGRELVEEALKMGADVVGGIPHYEPAREYGEMSVKATVELAMKYDKLIDVHCDETDDPQARFIELLNALVYLEGYGAKTSASHTCSFGSADDSYAYRMIDLFKKSKINFISNPTENAYLQGRHDTYPKRRGLTRVKEFMEHGINVAFAQDSINDPWYPMGNGNMMNILDNGIHLAQIMSPQDIEKDLDLITYNGARCLNIQDKYLLEVGKDSNFIVLNGDSPFDVIRNRANVLACVRKGEFYLSKNQ

Columns and labels:
[1] = system: purified heterologously expressed creatinine deiminase from Tissierella creatinini; test: Interference studies: compound added to the reaction mixture, creatinine deiminase activity determined (coupled optical test); format: biochemical; settings: for Maximum concentration without interference: compound added to standard reaction mixture, creatinine deiminase activity
Excerpt: A technique for specifically measuring the creatinine concentration of a sample includes a simple indicator reaction step is provided, whereby no complicated auxiliary measurement reactions are necessary. […] Therefore, the subject creatinine deiminase polypeptide specifically and preferentially interacts with creatinine also in presence of other substrates with high specificity, without undue interference from other molecules which would otherwise compromise the accuracy of the measured value for the creatinine concentration in the sample.
(§1) The activity of the purified recombinant enzyme was determined using a modified enzymatic method developed by Bergmeyer (Bergmeyer, H. U. (1985), Methods of enzymatic analysis 8: 488–507). This method includes the measuring of free ammonia produced during a creatinine deiminase reaction via a coupled optical test, by measuring the […] of NADH consumed by the free ammonia at […] and/or 365 nm. The initial reaction comprised the following concentrations in a final volume of 0.6 ml: TEA buffer 0.11 mol/l, pH 8.6; creatinine 1.5 mmol/l; ADP 1.11 mmol/l; DTE 1 mmol/l; NADH 0.11 mmol/l; 2-oxoglutarate 11 mmol/l; glutamate dehydrogenase 8 U/ml. After incubating the reaction components (5 min at 37° C.), 0.01 ml of the purified recombinant enzyme was transferred to a cuvette and placed into a photometer for observing the extinction acceptance reaction at 340 nm. One enzyme unit was determined to catalyze the degrading of 1 μmol creatinine/min at 37° C.
A series of interference studies was performed using the purified and expressed creatinine deiminase polypeptide in the presence of the different serum compounds. The compound was provided to the standard reaction mixture and the creatinine deiminase activity was determined using the methods described above.

[2] = Enzyme activity of recombinant creatinine deiminase (coupled optical test / Jaffé method); format: biochemical
Description: The heterologous expression of an active creatinine deiminase derived from T. creatinini in E. coli (from the recombinant cell extract) was analyzed using gel electrophoresis (FIG. 8) and by determining the enzymatic activity in the cell-free raw extracts. […] Additionally, a band for the purified creatinine deiminase appeared at this same distance of 300 kDa (see FIG. 8, lanes 3 and 5), and likewise a similar band appeared in the raw extract of T. creatinini (FIG. 8, lane 2). The predicted size for creatinine deiminase (300 kDa) is well within range of the known value (288 kDa) as determined by Gottschalk et al. 1991 (supra). The specific activity of the recombinant creatinine deiminase in the cell-free extract was determined to be about 10.2 U/mg.
Heterologous sequences expressing creatinine deiminase (EC 3.5.4.21), as derived from T. creatinini, were also purified according to methods described by Gottschalk et al. 1991 (supra). The creatinine deiminase protein was purified from 5 g of cells using ammonium sulphate precipitation and chromatography to apparent homogeneity using phenylsepharose and DEAE-Sepharose CL6B (see FIG. 9). The specific activity of the purified recombinant enzyme was determined to be 1423 U/mg (see Table 2). The enzyme was suspended in a potassium phosphate buffer (KPP; pH 7.65, 50% Glycerin) and stored at −20° C. in. The purification steps are described as follows:
as §1

[3] = Storage stability of the purified enzyme in dialysis buffer; format: physicochemical; settings: in the dialysis buffer for several months
Description: These samples were dialyzed using several rounds of fresh buffer (0.05 mol/l potassium phosphate, pH 7.65/glycerine, 1:2 v/v) at 4° C. until ammonia could no longer be detected.
The purified enzyme remained stable in the dialysis buffer for several months, experiencing a loss of activity of 9.1%. The optimal pH value for the purified enzyme, when suspended in phosphate and TEA buffers, was within the range of 8.5–8.75, with maximum activity measured at 47° C.

| Molecule | Maximum concentration without interference [1] | further results |
| --- | --- | --- |
| Nc1nc(=O)[nH]cc1F [5-Fluorocytosine] | 1000 mg/L | – |
| CC(=O)O [Acetic acid] | 200 mg/L | – |
| CC(=O)CC(=O)O [Acetoacetate] | 7.8 mg/L | – |
| CC(C)=O [Acetone] | 2000 mg/L | – |
| C[C@H](CS)C(=O)N1CCC[C@H]1C(=O)O [Captopril] | 83 mg/L | – |
| CN(CC(=O)O)C(=N)N [Creatine] | 2000 mg/L | – |
| Nc1cc[nH]c(=O)n1 [Cytosine] | 2000 mg/L | concentration without any interference ([1]; as stated in the text for Table 1): up to 2000 mg/ml |
| CNC[C@H](O)c1ccc(O)c(O)c1 [Epinephrine] | 0.05 mg/L | – |
| NS(=O)(=O)c1cc(C(=O)O)c(NCc2ccco2)cc1Cl [Fuoresemide] | 4433 mg/L | – |
| N[C@@H](Cc1c[nH]cn1)C(=O)O [Histidine] | 2250 mg/L | – |
| NC[C@H](O)c1ccc(O)c(O)c1 [Norepinephrine] | 1.5 mg/L | – |
| O=C(O)C(=O)O [Oxalic acid] | 400 mg/L | – |
| O=C(O)c1cc(/N=N/c2ccc(S(=O)(=O)Nc3ccccn3)cc2)ccc1O [Salazosulphapyridine] | 550 mg/L | – |
| Cc1cc(NS(=O)(=O)c2ccc(N)cc2)no1 [Sulphamethoxazole] | 500 mg/L | – |
| COc1cc(Cc2cnc(N)nc2N)cc(OC)c1OC [Trimethoprime] | 46 mg/L | – |
| CN[C@H](CC(C)C)C(=O)N[C@H]1C(=O)N[C@@H](CC(N)=O)C(=O)N[C@H]2C(=O)N[C@H]3C(=O)N[C@H](C(=O)N[C@H](C(=O)O)c4cc(O)cc(O)c4-c4cc3ccc4O)[C@H](O)c3ccc(c(Cl)c3)Oc3cc2cc(c3O[C@@H]2O[C@H](CO)[C@@H](O)[C@H](O)[C@H]2O[C@H]2C[C@](C)(N)[C@H](O)[C@H](C)O2)Oc2ccc(cc2Cl)[C@H]1O [Vancomycin] | 288 mg/L | – |
| C[C@](N)(Cc1ccc(O)c(O)c1)C(=O)O [α-Methyl-Dopa] | 107 mg/L | – |
| Hemoglobin | 0 mg/L | – |
| B1 | – | Km ([2]; Lineweaver Burke plot analysis): 1100 µM; specific activity of the purified recombinant enzyme ([2]; after phenylsepharose and DEAE-Sepharose CL6B): 1423 U/mg; specific activity in the cell-free extract ([2]; cell-free extract of E. coli DH5α/pKT1): about 10.2 U/mg; optimal pH value ([2]; in phosphate and TEA buffers): 8.5–8.75; Vmax ([2]; per protein): 1467 U/mg; Vmax ([2]; this enzyme preparation): 8.8 U/ml; loss of activity [3]: 9.1% |
